Each structure is given as a SMILES string.

The source of these data is patent US12077503B2, “Substituted cyclic amides and their use as herbicides” (FMC CORPORATION, priority 2015, dated 2024).

Common to all, as to type: in vivo
Experiment [1] concerns giant foxtail (Setaria faberii). Description: Test A postemergence. The note with it: Setaria faberi, post-emergence, 240 h, 125 g ai/ha, postemergence, visual injury rating after approximately 10 d; read-out: Foxtail, Giant plant response rating (0 to 100 scale, 0 no effect, 100 complete control). The gist of the method:
(§1)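 Visual injury scores from 0, no effect, to 100, complete control, were assigned versus untreated controls roughly 10 d after treatment in the greenhouse. Test chemicals, formulated with surfactant in a non-phytotoxic solvent, were applied to planted seeds as a preemergence soil spray or postemergence to one- to two-leaf plants 2 to 10 cm tall, in loam–sand soil.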

For experiment [2], the system named is pigweed (Amaranthus retroflexus). In words: Test A postemergence. The following applies: Amaranthus retroflexus, post-emergence, 240 h, 125 g ai/ha, postemergence, visual injury rating after approximately 10 d; read-out: Pigweed plant response rating (0 to 100 scale, 0 no effect, 100 complete control). The gist of the method:
as §1

Experiment [3] has as its system ragweed (common ragweed, Ambrosia elatior). In words: Test A postemergence. The following applies: Ambrosia artemisiifolia, post-emergence, 240 h, 125 g ai/ha, postemergence, visual injury rating after approximately 10 d; read-out: Ragweed plant response rating (0 to 100 scale, 0 no effect, 100 complete control). Summed up:
as §1

Experiment [4] has as its system Galium (catchweed bedstraw, Galium aparine). Description: Test A postemergence. The following applies: Galium, post-emergence, 240 h, 125 g ai/ha, postemergence, visual injury rating after approximately 10 d; read-out: Galium plant response rating (0 to 100 scale, 0 no effect, 100 complete control). The gist of the method: as §1
The subject of experiment [5] is wheat (Triticum aestivum). Description: Test A postemergence. The following applies: Triticum aestivum, post-emergence, 240 h, 125 g ai/ha, postemergence, visual injury rating after approximately 10 d; read-out: Wheat plant response rating (0 to 100 scale, 0 no effect, 100 complete control). The gist of the method: as §1
In experiment [6] the test system is blackgrass (Alopecurus myosuroides). In words: Test A postemergence. The following applies: Alopecurus myosuroides, post-emergence, 240 h, 125 g ai/ha, postemergence, visual injury rating after approximately 10 d; read-out: Blackgrass plant response rating (0 to 100 scale, 0 no effect, 100 complete control). Summed up: as §1
The subject of experiment [7] is ryegrass, Italian (Italian ryegrass, Lolium multiflorum). Description: Test A postemergence. The following applies: Lolium multiflorum, post-emergence, 240 h, 125 g ai/ha, postemergence, visual injury rating after approximately 10 d; read-out: Ryegrass, Italian plant response rating (0 to 100 scale, 0 no effect, 100 complete control). Summed up:
as §1

Another experiment relates to corn (Zea mays). In words: Test A postemergence. The note with it: Zea mays, post-emergence, 240 h, 125 g ai/ha, postemergence, visual injury rating after approximately 10 d; read-out: Corn plant response rating (0 to 100 scale, 0 no effect, 100 complete control). The gist of the method:
as §1

The test system of experiment [8] is barnyardgrass (Echinochloa crus-galli). Description: Test A postemergence. The following applies: Echinochloa crus-galli, post-emergence, 240 h, 125 g ai/ha, postemergence, visual injury rating after approximately 10 d; read-out: Barnyardgrass plant response rating (0 to 100 scale, 0 no effect, 100 complete control). Summed up:
as §1

The next experiment concerns Kochia (Kochia scoparia). In words: Test A preemergence. The note with it: Bassia scoparia, pre-emergence, 240 h; for pest or weed control at 125 g/ha: 125 g ai/ha, preemergence, 0 to 100 scale where 0 is no effect and 100 is complete control, read-out: Kochia plant response rating; for pest or weed control at 500 g/ha: 500 g ai/ha, Preemergence, visual injury vs untreated controls after approximately 10 d, read-out: Kochia plant response rating (0 to 100 scale where 0 is no effect and 100 is complete control). Summed up: as §1

The subject of experiment [9] is giant foxtail (Setaria faberii). Description: Test A preemergence. The following applies: Setaria faberi, pre-emergence, 240 h; for pest or weed control at 125 g/ha: 125 g ai/ha, preemergence, 0 to 100 scale where 0 is no effect and 100 is complete control, read-out: Foxtail, Giant plant response rating; for pest or weed control at 500 g/ha: 500 g ai/ha, Preemergence, visual injury vs untreated controls after approximately 10 d, read-out: Foxtail, Giant plant response rating (0 to 100 scale where 0 is no effect and 100 is complete control). The gist of the method:
as §1

Experiment [10] concerns pigweed (Amaranthus retroflexus). In words: Test A preemergence. The note with it: Amaranthus retroflexus, pre-emergence, 240 h; for pest or weed control at 125 g/ha: 125 g ai/ha, preemergence, 0 to 100 scale where 0 is no effect and 100 is complete control, read-out: Pigweed plant response rating; for pest or weed control at 500 g/ha: 500 g ai/ha, Preemergence, visual injury vs untreated controls after approximately 10 d, read-out: Pigweed plant response rating (0 to 100 scale where 0 is no effect and 100 is complete control).

For experiment [11], the system named is ragweed (common ragweed, Ambrosia elatior). Description: Test A preemergence. The following applies: Ambrosia artemisiifolia, pre-emergence, 240 h; for pest or weed control at 125 g/ha: 125 g ai/ha, preemergence, 0 to 100 scale where 0 is no effect and 100 is complete control, read-out: Ragweed plant response rating; for pest or weed control at 500 g/ha: 500 g ai/ha, Preemergence, visual injury vs untreated controls after approximately 10 d, read-out: Ragweed plant response rating (0 to 100 scale where 0 is no effect and 100 is complete control). The gist of the method:
as §1

The subject of experiment [12] is ryegrass, Italian (Italian ryegrass, Lolium multiflorum). Description: Test A preemergence. The note with it: Lolium multiflorum, pre-emergence, 240 h; for pest or weed control at 125 g/ha: 125 g ai/ha, preemergence, 0 to 100 scale where 0 is no effect and 100 is complete control, read-out: Ryegrass, Italian plant response rating; for pest or weed control at 500 g/ha: 500 g ai/ha, Preemergence, visual injury vs untreated controls after approximately 10 d, read-out: Ryegrass, Italian plant response rating (0 to 100 scale where 0 is no effect and 100 is complete control). Summed up:
as §1

In experiment [13] the test system is barnyardgrass (Echinochloa crus-galli). In words: Test A preemergence. The following applies: Echinochloa crus-galli, pre-emergence, 240 h; for pest or weed control at 125 g/ha: 125 g ai/ha, preemergence, 0 to 100 scale where 0 is no effect and 100 is complete control, read-out: Barnyardgrass plant response rating; for pest or weed control at 500 g/ha: 500 g ai/ha, Preemergence, visual injury vs untreated controls after approximately 10 d, read-out: Barnyardgrass plant response rating (0 to 100 scale where 0 is no effect and 100 is complete control). The gist of the method: as §1

Consider `COc1ccccc1NC(=O)[C@H]1C(=O)N(C)C[C@@H]1c1ccc(C(F)(F)F)cc1` [Compound 843], for which the pest or weed control at 125 g/ha in [1] amounted to 70%; in experiment [2] it was 20%; in experiment [3], 0%; in [4], 30%; in experiment [6], 0%; in experiment [7] it was 0%. For the same compound, the pest or weed control at 125 g/ha in experiment [8] stood at 40%; with Kochia (Kochia scoparia) it was 60%; in [9], 90%; in experiment [10] it was 0%; in experiment [11], 0%; in experiment [12], 0%. In addition, in experiment [13], the pest or weed control at 125 g/ha was 60%. Also, the plant injury at 125 g/ha (in experiment [5]; in the experiment on corn (Zea mays)) was 0% in each case. For the same compound, the pest or weed control at 500 g/ha in the experiment with Kochia (Kochia scoparia) turned out to be 70%; in [9], 90%; in experiment [10], 40%; in [11] it was 30%; in experiment [12], 50%; in [13] it was 80%.
With `CSc1ccccc1NC(=O)[C@H]1C(=O)N(C)C[C@@H]1c1cc(F)c(F)c(F)c1` [Compound 866], the pest or weed control at 125 g/ha in experiment [1] came to 70%; in experiment [2] it was 0%; in [3] it was 0%; in experiment [4], 20%; in experiment [6], 0%; in experiment [7], 20%. In addition, the pest or weed control at 125 g/ha turned out to be 60% in experiment [8]; 20% with Kochia (Kochia scoparia); 90% in [9]; 0% in experiment [10]; 0% in experiment [11]; 50% in experiment [12]. In experiment [13], the pest or weed control at 125 g/ha amounted to 30%. Further, the figures for the plant injury at 125 g/ha (in [5]; in the experiment on corn (Zea mays)) were 0% and 30%, respectively. Also, the pest or weed control at 500 g/ha with Kochia (Kochia scoparia) amounted to 80%; in experiment [9] it was 90%; in [10], 50%; in experiment [11], 30%; in experiment [12] it was 70%; in [13], 90%.
For the compound `CN1C[C@H](c2cc(F)c(F)c(F)c2)[C@@H](C(=O)Nc2ccccc2F)C1=O` [Compound 878], the pest or weed control at 125 g/ha in [1] was found to be 80%; in experiment [2] it was 0%; in experiment [3], 20%; in [4], 50%; in [6], 60%; in experiment [7], 40%. For the same compound, the pest or weed control at 125 g/ha came to 100% in [8]; 70% with Kochia (Kochia scoparia); 100% in [9]; 0% in [10]; 30% in experiment [11]; 30% in [12]. Besides, the pest or weed control at 125 g/ha in experiment [13] is 100%. Besides, the results for the plant injury at 125 g/ha (in [5]; in the experiment with corn (Zea mays)) were 60% and 50%, respectively. In addition, the pest or weed control at 500 g/ha in the experiment with Kochia (Kochia scoparia) stood at 90%; in experiment [9] it was 100%; in experiment [10], 40%; in experiment [11], 80%; in [12] it was 70%; in experiment [13], 100%.
